Values after ≈ are worked out from the molar mass of the structure shown.
Legend:
[1] = test system: Plasmodium falciparum; assay: Antiplasmodial activity against asexual blood-stage Plasmodium falciparum Tm90-C2B using 2% haematocrit and 0.2% parasitemia assessed as reduction in fluorescence measured after 72 hrs by Malaria SYBR Green I-based Fluorescence (MSF) assay; type: functional, organism-based
[2] = test system: Plasmodium falciparum; assay: microbe, parasite or virus in culture; settings: Dd2, 72 h
Description: Antiplasmodial activity against asexual blood-stage Plasmodium falciparum Dd2 using 2% haematocrit and 0.2% parasitemia assessed as reduction in fluorescence measured after 72 hrs by Malaria SYBR Green I-based Fluorescence (MSF) assay

[3] = test system: Plasmodium falciparum; assay: microbe, parasite or virus in culture; settings: D6, 72 h
Description: Antiplasmodial activity against asexual blood-stage Plasmodium falciparum D6 using 2% haematocrit and 0.2% parasitemia assessed as reduction in fluorescence measured after 72 hrs by Malaria SYBR Green I-based Fluorescence (MSF) assay

[4] = test system: MDR1 (human); assay: Apparent permeability across apical to basolateral side in MDCK transfected with human MDR1 cells incubated for 1 hr by LC-MS analysis; settings: dog, MDCK-MDR1
[5] = test system: HepG2; assay: Cytotoxicity against human HepG2 cells assessed as cell viability measured after 48 hrs by MTT assay; type: toxicity, cell-based; settings: hepg2
[6] = Solubility of the compound in potassium phosphate buffer at pH 7.4 by UV-vis spectroscopy; settings: buffer
[7] = in vitro; settings: human, liver microsomes
[8] = Metabolic stability in human liver microsomes assessed as half life measured up to 60 mins by LC/MS analysis; type: ADME, Microsome
[9] = in vitro; settings: mouse, liver microsomes
[10] = test system: MDR1 (human); assay: Apparent permeability across basolateral to apical side in MDCK transfected with human MDR1 cells incubated for 1 hr by LC-MS analysis; settings: dog, MDCK-MDR1
[11] = Metabolic stability in mouse liver microsomes assessed as half life measured up to 60 mins by LC/MS analysis; type: ADME, Microsome
[12] = test system: Plasmodium yoelii; assay: Antimalarial activity against erythrocytic Plasmodium yoelii MRA-428 infected in CF1 mouse assessed as reduction in parasitemia at 10 mg/kg, po once daily for 4 days measured on day 5; type: functional; set-up: scale not given: the % may be the effect or the level left; settings: time 4 day

CCC1=C(CC)/C(=C/NC2CCCCCCC2)N=C1c1ccn[nH]1
IC50 [1]: > 2500 nM | IC50 [2]: > 2500 nM | IC50 [3]: > 2500 nM

CCC1=C(CC)/C(=C/NC2CCCCC2)N=C1c1cc2cc(OC)ccc2[nH]1
IC50 [1]: 2290 nM | IC50 [2]: > 2500 nM | IC50 [3]: 1080 nM

C(/NC1CCCCCC1)=C1/N=C(c2ccc[nH]2)C(c2ccccc2)=C1c1ccccc1
IC50 [1]: 2110 nM | IC50 [2]: 1000 nM

CCc1c(C(=O)NC2CCCCC2)[nH]c(-c2ccc[nH]2)c1CC
IC50 [1]: > 2500 nM | IC50 [2]: > 2500 nM | IC50 [3]: > 2500 nM

CCC1=C(CC)/C(=C/NC2CCCCCCC2)N=C1c1ccc(C#N)[nH]1
IC50 [1]: > 2500 nM | IC50 [2]: > 2500 nM | IC50 [3]: > 2500 nM

CCc1ccc(-c2[nH]c(C(=O)NC34C[C@H]5C[C@@H](C3)C[C@@H](C4)C5)c(CC)c2CC)[nH]1
IC50 [1]: > 2500 nM | IC50 [2]: > 2500 nM | IC50 [3]: > 2500 nM

CCC1=C(CC)/C(=C/NC2CCCCCC2)N=C1c1ccn[nH]1
IC50 [1]: > 2500 nM | IC50 [2]: > 2500 nM | IC50 [3]: > 2500 nM

CCC1=C(CC)/C(=C/NC2CCCCCCC2)N=C1c1ccc(Cl)[nH]1
Papp A→B at 1 h [4]: 0.28 ×10⁻⁶ cm/s | IC50 [5]: 12300 nM | IC50 [1]: 101 nM | solubility [6]: 5.37 µM (≈ 1.93 µg/mL) | microsomal CLint at 1 h [7]: 10.1 µL/min/mg | half-life [8]: > 1 h | IC50 [2]: 99.1 nM | microsomal CLint at 1 h [9]: 12.4 µL/min/mg | IC50 [3]: 186 nM | Papp B→A at 1 h [10]: 0.04 ×10⁻⁶ cm/s | half-life [11]: > 1 h

CCC1=C(CC)/C(=C/NC2CCCCC2)N=C1c1ccccc1O
IC50 [1]: > 2500 nM | IC50 [2]: > 2500 nM | IC50 [3]: > 2500 nM

CCC1=C(CC)/C(=C/NC2CCCCCCC2)N=C1c1ccc(-c2ccc(OC)cc2)[nH]1
Papp A→B at 1 h [4]: 0.054 ×10⁻⁶ cm/s | IC50 [5]: 4960 nM | Activity [12]: 0% | IC50 [1]: 25.4 nM | solubility [6]: < 3.125 µM | half-life [8]: > 1 h | IC50 [2]: 22.5 nM | IC50 [3]: 14.5 nM | Papp B→A at 1 h [10]: 0.012 ×10⁻⁶ cm/s | half-life [11]: > 1 h

C(/NC1CCCCCC1)=C1/N=C(c2ccc[nH]2)C(Oc2ccccc2)=C1Oc1ccccc1
IC50 [1]: > 2500 nM | IC50 [2]: > 2500 nM | IC50 [3]: > 2500 nM

CCC1=C(CC)/C(=C/NC2CCCCCCC2)N=C1c1ccc(-c2ccccc2)[nH]1
Papp A→B at 1 h [4]: 0.004 ×10⁻⁶ cm/s | IC50 [5]: 8960 nM | Activity [12]: 37.4% | IC50 [1]: 65.5 nM | solubility [6]: 4.62 µM (≈ 1.86 µg/mL) | microsomal CLint at 1 h [7]: 42.1 µL/min/mg | half-life [8]: 0.548 h | IC50 [2]: 48.2 nM | microsomal CLint at 1 h [9]: 26.5 µL/min/mg | IC50 [3]: 39 nM | Papp B→A at 1 h [10]: 0.002 ×10⁻⁶ cm/s | half-life [11]: 0.87 h

CCc1c(C(=O)NC23C[C@H]4C[C@@H](C2)C[C@@H](C3)C4)[nH]c(-c2ccc[nH]2)c1CC
IC50 [1]: > 2500 nM | IC50 [2]: > 2500 nM | IC50 [3]: > 2500 nM

COc1ccc(OC2=C(Oc3ccc(OC)cc3)/C(=C/NC3CCCCCC3)N=C2c2ccc[nH]2)cc1
IC50 [1]: 2170 nM | IC50 [2]: 1740 nM | IC50 [3]: 1490 nM

COc1ccc(C2=C(c3ccc(OC)cc3)/C(=C/NC3CCCCCC3)N=C2c2ccc[nH]2)cc1
IC50 [1]: 131 nM | IC50 [2]: 330 nM

CCC1=C(CC)/C(=C/NC2CCCCC2)N=C1c1ccc(C#N)[nH]1
IC50 [1]: > 2500 nM | IC50 [2]: > 2500 nM | IC50 [3]: 1600 nM

CCC1=C(CC)/C(=C/NC2CCCCC2)N=C1c1ccc(-c2ccc(OC)cc2)[nH]1
Papp A→B at 1 h [4]: 0.01 ×10⁻⁶ cm/s | IC50 [5]: 6570 nM | Activity [12]: 18.5% | IC50 [1]: 18 nM | solubility [6]: < 3.125 µM | microsomal CLint at 1 h [7]: 4.54 µL/min/mg | half-life [8]: > 1 h | IC50 [2]: 41.1 nM | microsomal CLint at 1 h [9]: 21.8 µL/min/mg | IC50 [3]: 33.8 nM | Papp B→A at 1 h [10]: 0.003 ×10⁻⁶ cm/s | half-life [11]: > 1 h

C(/NC12C[C@H]3C[C@@H](C1)C[C@@H](C2)C3)=C1/N=C(c2ccc[nH]2)C(Oc2ccccc2)=C1Oc1ccccc1
IC50 [1]: 456 nM | IC50 [2]: 787 nM | IC50 [3]: 617 nM

CCC1=C(CC)/C(=C/NC2CCCCC2)N=C1c1ccccc1OCCN(C)C
IC50 [1]: > 2500 nM | IC50 [2]: 1380 nM | IC50 [3]: > 2500 nM

CCC1=C(CC)/C(=C/NC2CCCCC2)N=C1c1ccccc1OC
IC50 [1]: > 2500 nM | IC50 [2]: > 2500 nM | IC50 [3]: > 2500 nM

CCC1=C(CC)/C(=C/NC2CCCCCCC2)N=C1c1ccc(Cc2ccc(OC)cc2)[nH]1
Papp A→B at 1 h [4]: 0.074 ×10⁻⁶ cm/s | IC50 [5]: 4310 nM | Activity [12]: 0% | IC50 [1]: 13 nM | solubility [6]: < 3.125 µM | half-life [8]: > 1 h | IC50 [2]: 10.8 nM | Papp B→A at 1 h [10]: 0.12 ×10⁻⁶ cm/s | half-life [11]: > 1 h

C(/NC12C[C@H]3C[C@@H](C1)C[C@@H](C2)C3)=C1/N=C(c2ccc[nH]2)C(c2ccccc2)=C1c1ccccc1
IC50 [1]: 351 nM | IC50 [2]: 359 nM | IC50 [3]: 412 nM
